Measurements published in the supplement of paper PMC12076712.
± gives the standard deviation of the averaged measurements.

What was measured:
Assay in all cases: pIC50, kinobeads binding competition
Conditions in all cases: cell material: Jurkat lysate
AAK1 = AAK1 (UniProt Q2M2I8)
CAMK4 = target: T1, CAMK4 (UniProt Q16566)
T1 sequence (whole entry): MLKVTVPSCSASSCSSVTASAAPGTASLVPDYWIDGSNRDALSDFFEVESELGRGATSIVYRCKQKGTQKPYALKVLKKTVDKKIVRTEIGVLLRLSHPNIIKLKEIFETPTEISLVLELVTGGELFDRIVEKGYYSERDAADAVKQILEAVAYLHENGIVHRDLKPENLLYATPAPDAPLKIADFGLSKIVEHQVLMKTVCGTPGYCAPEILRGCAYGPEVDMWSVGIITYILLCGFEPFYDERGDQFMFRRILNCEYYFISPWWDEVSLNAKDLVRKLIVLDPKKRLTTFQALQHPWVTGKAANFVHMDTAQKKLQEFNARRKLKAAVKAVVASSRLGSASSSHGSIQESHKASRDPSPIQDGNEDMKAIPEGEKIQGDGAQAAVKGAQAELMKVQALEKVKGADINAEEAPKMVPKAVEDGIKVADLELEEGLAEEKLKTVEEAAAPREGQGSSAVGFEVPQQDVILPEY

SYK = SYK (UniProt P43405)
TAOK2 = target: T2, TAOK2 (UniProt Q9UL54)
T2 sequence (whole entry): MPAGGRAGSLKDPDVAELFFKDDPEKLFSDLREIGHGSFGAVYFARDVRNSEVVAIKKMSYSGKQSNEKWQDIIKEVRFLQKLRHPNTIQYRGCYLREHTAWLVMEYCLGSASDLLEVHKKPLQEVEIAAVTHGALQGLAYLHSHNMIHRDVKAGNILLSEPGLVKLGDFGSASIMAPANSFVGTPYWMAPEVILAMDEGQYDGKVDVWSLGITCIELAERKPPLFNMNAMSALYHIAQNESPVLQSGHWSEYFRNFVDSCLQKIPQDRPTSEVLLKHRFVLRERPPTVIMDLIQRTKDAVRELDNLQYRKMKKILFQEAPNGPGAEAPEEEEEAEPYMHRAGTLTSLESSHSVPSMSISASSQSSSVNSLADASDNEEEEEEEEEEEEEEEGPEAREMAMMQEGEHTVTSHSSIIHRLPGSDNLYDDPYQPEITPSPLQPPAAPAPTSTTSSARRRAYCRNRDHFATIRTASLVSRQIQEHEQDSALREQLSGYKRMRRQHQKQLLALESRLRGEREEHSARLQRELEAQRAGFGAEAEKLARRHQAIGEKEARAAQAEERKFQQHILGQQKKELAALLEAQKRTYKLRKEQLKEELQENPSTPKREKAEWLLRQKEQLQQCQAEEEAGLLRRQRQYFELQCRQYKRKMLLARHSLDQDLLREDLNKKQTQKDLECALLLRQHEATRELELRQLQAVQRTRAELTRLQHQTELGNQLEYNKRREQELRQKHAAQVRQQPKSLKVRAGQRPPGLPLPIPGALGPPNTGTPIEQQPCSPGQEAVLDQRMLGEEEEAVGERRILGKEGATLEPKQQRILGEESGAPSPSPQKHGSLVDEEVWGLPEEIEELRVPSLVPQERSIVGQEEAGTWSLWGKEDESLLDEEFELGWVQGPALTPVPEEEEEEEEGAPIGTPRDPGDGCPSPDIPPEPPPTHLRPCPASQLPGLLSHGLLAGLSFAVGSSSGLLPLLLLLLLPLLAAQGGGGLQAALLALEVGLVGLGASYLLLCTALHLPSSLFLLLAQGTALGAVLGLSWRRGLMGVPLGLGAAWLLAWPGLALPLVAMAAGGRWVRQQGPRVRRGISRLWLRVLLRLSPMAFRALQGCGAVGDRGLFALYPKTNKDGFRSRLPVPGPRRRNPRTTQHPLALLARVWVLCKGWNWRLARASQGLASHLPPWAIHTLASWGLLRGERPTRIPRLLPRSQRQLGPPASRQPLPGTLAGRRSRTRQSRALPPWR

UniProt O75460 = target: UniProt O75460
Sequence of UniProt O75460 (O75460 whole entry, looked up): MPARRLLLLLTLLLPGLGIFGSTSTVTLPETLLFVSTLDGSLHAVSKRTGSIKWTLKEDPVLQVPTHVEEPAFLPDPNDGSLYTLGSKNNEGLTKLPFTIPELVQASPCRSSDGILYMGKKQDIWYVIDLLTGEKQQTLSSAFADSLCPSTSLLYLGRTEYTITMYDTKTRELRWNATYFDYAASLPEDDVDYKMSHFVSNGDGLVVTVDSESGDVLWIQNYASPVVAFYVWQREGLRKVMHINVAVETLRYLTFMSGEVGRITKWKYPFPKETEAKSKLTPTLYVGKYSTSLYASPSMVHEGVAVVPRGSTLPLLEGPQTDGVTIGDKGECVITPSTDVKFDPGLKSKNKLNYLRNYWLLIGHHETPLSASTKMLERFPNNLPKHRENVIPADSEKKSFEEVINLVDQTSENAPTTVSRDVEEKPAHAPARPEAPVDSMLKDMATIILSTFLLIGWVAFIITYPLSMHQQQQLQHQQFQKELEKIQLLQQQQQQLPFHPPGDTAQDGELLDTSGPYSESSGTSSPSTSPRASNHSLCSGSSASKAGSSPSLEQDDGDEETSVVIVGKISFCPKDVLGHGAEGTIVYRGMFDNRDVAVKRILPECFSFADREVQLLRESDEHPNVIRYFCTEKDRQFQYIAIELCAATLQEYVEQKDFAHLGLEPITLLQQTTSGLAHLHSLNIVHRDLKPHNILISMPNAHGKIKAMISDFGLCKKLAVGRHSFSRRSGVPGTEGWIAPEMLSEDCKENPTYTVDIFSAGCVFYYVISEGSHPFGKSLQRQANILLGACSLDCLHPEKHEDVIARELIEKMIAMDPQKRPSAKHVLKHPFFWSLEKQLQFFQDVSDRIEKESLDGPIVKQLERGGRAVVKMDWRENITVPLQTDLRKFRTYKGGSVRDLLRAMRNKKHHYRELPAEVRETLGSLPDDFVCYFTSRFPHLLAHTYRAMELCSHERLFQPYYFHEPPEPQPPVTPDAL

UniProt O75716 = target: UniProt O75716
Sequence of UniProt O75716 (O75716 whole entry): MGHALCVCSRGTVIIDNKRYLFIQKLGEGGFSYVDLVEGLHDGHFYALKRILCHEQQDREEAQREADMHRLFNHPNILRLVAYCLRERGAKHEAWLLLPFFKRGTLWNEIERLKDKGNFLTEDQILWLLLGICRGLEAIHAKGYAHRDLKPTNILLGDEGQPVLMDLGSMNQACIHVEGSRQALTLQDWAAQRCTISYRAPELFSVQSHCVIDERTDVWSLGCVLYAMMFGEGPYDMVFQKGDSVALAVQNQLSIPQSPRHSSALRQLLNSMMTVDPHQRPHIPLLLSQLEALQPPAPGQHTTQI

UniProt P23443 = target: UniProt P23443
Sequence of UniProt P23443 (P23443 whole entry, looked up): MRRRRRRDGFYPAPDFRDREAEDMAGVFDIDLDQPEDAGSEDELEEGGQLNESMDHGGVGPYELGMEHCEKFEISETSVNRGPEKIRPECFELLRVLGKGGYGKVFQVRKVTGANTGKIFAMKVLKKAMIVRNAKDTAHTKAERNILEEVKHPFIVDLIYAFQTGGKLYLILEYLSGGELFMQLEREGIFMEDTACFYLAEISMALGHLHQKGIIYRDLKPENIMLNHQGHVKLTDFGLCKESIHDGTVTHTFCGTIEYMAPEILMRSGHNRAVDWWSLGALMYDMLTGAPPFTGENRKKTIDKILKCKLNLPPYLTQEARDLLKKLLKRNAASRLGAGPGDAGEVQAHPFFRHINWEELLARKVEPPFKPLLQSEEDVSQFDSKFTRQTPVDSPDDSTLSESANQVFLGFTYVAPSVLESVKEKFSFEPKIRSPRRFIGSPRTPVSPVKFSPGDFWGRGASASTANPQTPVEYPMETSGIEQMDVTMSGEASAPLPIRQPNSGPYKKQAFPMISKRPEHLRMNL

UniProt P46734 = target: T3, UniProt P46734
T3 sequence (whole entry): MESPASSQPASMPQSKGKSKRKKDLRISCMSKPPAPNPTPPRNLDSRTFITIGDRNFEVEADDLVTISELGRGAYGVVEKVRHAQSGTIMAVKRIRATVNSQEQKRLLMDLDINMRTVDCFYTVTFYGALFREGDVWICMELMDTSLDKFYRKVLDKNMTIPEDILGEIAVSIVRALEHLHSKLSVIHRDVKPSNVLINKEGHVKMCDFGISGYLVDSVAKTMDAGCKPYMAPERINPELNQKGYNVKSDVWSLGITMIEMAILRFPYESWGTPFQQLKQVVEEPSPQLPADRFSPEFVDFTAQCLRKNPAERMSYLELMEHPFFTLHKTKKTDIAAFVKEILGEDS

UniProt P49841 = target: UniProt P49841
Sequence of UniProt P49841 (P49841 whole entry, looked up): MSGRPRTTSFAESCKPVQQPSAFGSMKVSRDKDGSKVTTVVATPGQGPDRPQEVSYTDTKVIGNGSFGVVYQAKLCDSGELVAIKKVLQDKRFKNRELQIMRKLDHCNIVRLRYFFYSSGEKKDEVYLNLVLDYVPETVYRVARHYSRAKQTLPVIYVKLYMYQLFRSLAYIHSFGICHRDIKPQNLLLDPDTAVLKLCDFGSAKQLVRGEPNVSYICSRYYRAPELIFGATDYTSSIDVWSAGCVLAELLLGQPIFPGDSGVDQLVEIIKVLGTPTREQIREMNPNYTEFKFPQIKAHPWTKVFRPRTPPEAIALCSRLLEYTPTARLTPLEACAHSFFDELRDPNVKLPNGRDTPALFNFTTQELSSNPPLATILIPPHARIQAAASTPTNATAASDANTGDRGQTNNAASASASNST

UniProt P78527 = target: UniProt P78527
UniProt Q16512 = target: UniProt Q16512
Sequence of UniProt Q16512 (Q16512 whole entry, looked up): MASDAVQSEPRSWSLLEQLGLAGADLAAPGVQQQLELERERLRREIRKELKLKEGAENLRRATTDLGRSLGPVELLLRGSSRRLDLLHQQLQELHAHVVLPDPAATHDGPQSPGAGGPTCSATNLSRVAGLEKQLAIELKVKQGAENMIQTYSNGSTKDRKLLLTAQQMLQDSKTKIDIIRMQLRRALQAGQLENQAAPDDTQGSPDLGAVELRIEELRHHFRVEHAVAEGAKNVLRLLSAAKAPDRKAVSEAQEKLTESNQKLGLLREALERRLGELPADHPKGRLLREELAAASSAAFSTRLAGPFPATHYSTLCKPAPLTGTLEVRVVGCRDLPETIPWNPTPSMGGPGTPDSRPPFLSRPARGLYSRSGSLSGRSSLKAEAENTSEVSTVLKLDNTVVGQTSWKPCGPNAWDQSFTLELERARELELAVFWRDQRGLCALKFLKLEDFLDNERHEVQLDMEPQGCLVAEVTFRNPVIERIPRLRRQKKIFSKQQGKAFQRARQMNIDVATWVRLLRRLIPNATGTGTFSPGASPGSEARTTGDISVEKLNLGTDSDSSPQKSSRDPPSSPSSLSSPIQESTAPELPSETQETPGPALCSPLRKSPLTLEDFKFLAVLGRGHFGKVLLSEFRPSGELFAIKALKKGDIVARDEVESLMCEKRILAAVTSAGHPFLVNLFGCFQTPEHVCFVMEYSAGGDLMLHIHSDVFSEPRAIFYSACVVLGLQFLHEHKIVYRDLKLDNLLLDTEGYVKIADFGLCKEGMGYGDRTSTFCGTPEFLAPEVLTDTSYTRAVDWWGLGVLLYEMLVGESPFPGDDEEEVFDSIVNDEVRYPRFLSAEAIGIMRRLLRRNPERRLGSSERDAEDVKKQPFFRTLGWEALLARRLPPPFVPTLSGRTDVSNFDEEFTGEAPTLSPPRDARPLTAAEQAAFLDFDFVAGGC

UniProt Q8IW41 = target: T4, UniProt Q8IW41
T4 sequence (whole entry): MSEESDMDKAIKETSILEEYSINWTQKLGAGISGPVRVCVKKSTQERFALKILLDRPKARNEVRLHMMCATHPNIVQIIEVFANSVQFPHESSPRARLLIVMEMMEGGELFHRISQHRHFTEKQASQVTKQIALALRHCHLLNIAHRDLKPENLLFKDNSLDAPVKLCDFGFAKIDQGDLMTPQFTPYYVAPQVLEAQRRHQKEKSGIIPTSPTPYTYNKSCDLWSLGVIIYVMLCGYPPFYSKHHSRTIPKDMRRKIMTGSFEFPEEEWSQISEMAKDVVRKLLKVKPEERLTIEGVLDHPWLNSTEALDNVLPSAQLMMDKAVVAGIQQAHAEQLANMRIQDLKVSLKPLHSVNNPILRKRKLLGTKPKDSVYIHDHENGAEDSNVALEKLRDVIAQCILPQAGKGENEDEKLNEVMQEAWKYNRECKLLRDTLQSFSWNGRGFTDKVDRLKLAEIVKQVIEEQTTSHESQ

UniProt Q9BUB5 = target: UniProt Q9BUB5
Sequence of UniProt Q9BUB5 (Q9BUB5 whole entry, looked up): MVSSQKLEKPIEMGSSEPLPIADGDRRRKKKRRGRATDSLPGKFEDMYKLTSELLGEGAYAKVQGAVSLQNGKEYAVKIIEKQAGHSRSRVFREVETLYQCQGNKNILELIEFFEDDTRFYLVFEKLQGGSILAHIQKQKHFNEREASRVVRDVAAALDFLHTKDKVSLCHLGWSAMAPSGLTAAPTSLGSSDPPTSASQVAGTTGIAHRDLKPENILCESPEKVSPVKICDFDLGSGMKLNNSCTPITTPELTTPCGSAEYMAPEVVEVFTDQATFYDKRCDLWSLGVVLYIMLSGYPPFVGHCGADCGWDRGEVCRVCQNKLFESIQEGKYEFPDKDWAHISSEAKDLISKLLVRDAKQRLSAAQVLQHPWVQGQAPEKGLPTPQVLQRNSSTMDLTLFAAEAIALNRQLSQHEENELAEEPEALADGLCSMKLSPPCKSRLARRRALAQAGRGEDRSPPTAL

UniProt Q9Y2K2 = target: UniProt Q9Y2K2
Sequence of UniProt Q9Y2K2 (Q9Y2K2 whole entry, looked up): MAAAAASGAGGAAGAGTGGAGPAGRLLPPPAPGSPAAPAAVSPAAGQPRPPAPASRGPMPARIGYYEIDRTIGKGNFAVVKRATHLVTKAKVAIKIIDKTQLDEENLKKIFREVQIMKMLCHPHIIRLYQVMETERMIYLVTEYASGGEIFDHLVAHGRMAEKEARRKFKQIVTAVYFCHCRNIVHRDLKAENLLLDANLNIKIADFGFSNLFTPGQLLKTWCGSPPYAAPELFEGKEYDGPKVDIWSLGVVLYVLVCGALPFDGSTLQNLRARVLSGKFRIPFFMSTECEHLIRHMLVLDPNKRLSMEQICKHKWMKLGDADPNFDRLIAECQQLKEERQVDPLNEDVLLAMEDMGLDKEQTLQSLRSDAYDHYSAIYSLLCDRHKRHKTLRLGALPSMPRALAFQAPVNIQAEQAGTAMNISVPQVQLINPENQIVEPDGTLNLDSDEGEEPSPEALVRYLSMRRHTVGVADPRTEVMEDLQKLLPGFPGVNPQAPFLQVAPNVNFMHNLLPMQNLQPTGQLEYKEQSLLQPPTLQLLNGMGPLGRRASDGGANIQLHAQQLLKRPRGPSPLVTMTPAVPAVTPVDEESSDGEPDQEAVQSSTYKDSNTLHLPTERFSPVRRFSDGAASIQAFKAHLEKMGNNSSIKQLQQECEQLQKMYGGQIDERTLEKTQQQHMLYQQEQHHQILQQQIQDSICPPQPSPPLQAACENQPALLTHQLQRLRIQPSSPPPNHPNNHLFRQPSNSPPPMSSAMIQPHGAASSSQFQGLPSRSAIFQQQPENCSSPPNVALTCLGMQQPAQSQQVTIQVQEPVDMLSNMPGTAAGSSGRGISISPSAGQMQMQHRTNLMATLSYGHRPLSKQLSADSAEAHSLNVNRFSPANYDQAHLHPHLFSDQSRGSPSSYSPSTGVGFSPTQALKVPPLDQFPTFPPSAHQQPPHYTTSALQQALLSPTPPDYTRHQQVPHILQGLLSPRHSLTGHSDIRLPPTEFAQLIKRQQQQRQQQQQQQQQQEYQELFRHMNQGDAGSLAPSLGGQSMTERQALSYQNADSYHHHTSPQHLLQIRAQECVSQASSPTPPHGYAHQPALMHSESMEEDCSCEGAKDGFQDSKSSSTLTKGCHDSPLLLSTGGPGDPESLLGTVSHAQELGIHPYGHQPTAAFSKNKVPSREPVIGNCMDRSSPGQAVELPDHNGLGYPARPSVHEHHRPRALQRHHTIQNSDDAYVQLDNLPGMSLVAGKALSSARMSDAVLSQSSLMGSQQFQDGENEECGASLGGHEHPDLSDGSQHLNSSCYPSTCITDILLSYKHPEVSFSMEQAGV

pIC50 (AAK1): < 4.52
pIC50 (CAMK4): < 4.52
pIC50 (SYK): < 4.52
pIC50 (TAOK2): 5.6 ± 0.085
pIC50 (UniProt O75460): < 4.52
pIC50 (UniProt O75716): < 4.52
pIC50 (UniProt P23443): < 4.52
pIC50 (UniProt P46734): < 4.52
pIC50 (UniProt P49841): < 4.52
pIC50 (UniProt P78527): < 4.52
pIC50 (UniProt Q16512): < 4.52
pIC50 (UniProt Q8IW41): < 4.52
pIC50 (UniProt Q9BUB5): < 4.52
pIC50 (UniProt Q9Y2K2): < 4.52
SMILES: CCc1cnn2c(NCc3ccc[n+]([O-])c3)cc(N3CCCC[C@H]3CCO)nc12 [dinaciclib]
